Measurements as given in patent US8399462B2, “JNK modulators” (Roche Palo Alto LLC, priority 2006, dated 2013).

melting point [°C]	SMILES
244 to 245	CC(=O)N[C@H]1CC[C@H](Nc2nccc(-n3ccc4c(C(C)C#N)cccc43)n2)CC1 (some centres unmarked) [Compound 175, N-(4-{4-[4-(1-cyano-ethyl)-indol-1-yl]-pyrimidin-2-ylamino}-cyclohexyl)-acetamide]
238 to 239	CC(=O)N[C@H]1CC[C@H](Nc2nccc(-n3ccc4c(C(C)(C)C#N)cccc43)n2)CC1 [Compound 176, N-(4-{4-[4-(2-cyano-prop-2-yl)-indol-1-yl]-pyrimidin-2-ylamino}-cyclohexyl)-acetamide]
208.4 to 209	CN([C@H]1CC[C@H](Nc2nccc(-n3ncc4c(OCCCO)cccc43)n2)CC1)S(C)(=O)=O [Compound 178, N-(4-{4-[4-(3-hydroxy-propoxy)indazole-1-yl]-pyrmidin-2-ylamino}-cyclohexyl)-N-methyl-methanesulfonamide]
206.9 to 207.6	CC(C)(O)c1cccc2c1ccn2-c1ccnc(N[C@H]2CC[C@H](N3CCCS3(=O)=O)CC2)n1 [Compound 179, 2-(1-{2-[4-(1,1-dioxo-isothiazolidin-2yl)-cyclohexylamino}-pyrimidin-4-yl}-1H-indol-4-yl)-propan-2-ol]
227.5 to 228.5	CC(C)(C)OC(=O)N[C@H]1CC[C@H](Nc2nccc(-n3ccc4c(OCCCS(C)(=O)=O)cccc43)n2)CC1 [Compound 181, (4-{4-[4-(3-methane-sulfonyl-propoxy)-indol-1-yl]-pyrimidin-2-ylamino}-cyclohexyl)-carbamic acid t-butyl ester]
> 300	CN(C)S(=O)(=O)N[C@H]1CC[C@H](Nc2nccc(-n3ccc4c(C5(O)CCOCC5)cccc43)n2)CC1 [Compound 182, N-(4-{4-[4-(4-hydroxy-tetrahydropyran-4-yl)-indol-1-yl]-pyrimidin-2-ylamino}-cyclohexyl)-(N′,N′-dimethylamino)-sulfonamide]
229.5 to 231	CC(C)(O)[C@H]1CC[C@H](Nc2nccc(-n3ncc4c(OCCCO)cccc43)n2)CC1 [Compound 183, 3-(1-{2-[4-(2-hydroxy-prop-2-yl)-cyclohexyl-amino]-pyrimidin-4-yl}-1H-indazol-4-yloxy)-propan-1-ol]
143 to 145	CS(=O)(=O)CCCOc1cccc2c1cnn2-c1ccnc(N[C@H]2CC[C@H](C(=O)N3CCC(O)CC3)CC2)n1 [Compound 184, (4-hydroxy-piperidin-1-yl)-(4-{4-[4-(3-methane-sulfonyl-propoxy)-indazol-1-yl]-pyrimidin-2-ylamino}-cyclohexyl)-methanone]
226.5 to 228	CN([C@H]1CC[C@H](Nc2nccc(-n3ccc4c(CNS(C)(=O)=O)cccc43)n2)CC1)S(C)(=O)=O [Compound 188, N-(4-{4-[4-(methane-sulfonylamino-methyl)-indol-1-yl]-pyrimidin-2-ylamino}-cyclohexyl)-N-methyl-methane-sulfonamide]
222 to 223	CC(C)Oc1cccc2c1cnn2-c1ccnc(N[C@H]2CC[C@H](N(C)S(C)(=O)=O)CC2)n1 [Compound 189, N-{4-[4-(4-isopropoxy-indazol-1-yl)-pyrimidin-2-ylamino]-cyclohexyl}-N-methyl-methanesulfonamide]
248.3 to 249	CS(=O)(=O)N[C@H]1CC[C@H](Nc2nccc(-n3ccc4c(C5(O)CCOCC5)cccc43)n2)CC1 [Compound 194, N-(4-{4-[4-(4-hydroxy-tetrahydropyran-4-yl)-indol-1-yl]-pyrimidin-2-ylamino}-cyclohexyl)-methanesulfonamide]
179 to 180	CS(=O)(=O)N[C@H]1CC[C@H](Nc2nccc(-n3ccc4c(OCC5CCN(C(=O)OCc6ccccc6)CC5)cccc43)n2)CC1 [Compound 195, 4-{1-[2-(4-methane-sulfonylamino-cyclo-hexylamino)-pyrimidin-4-yl]-1H-indol-4-yloxymethyl}-piperidine-1-carboxylic acid benzyl ester]
259 to 259.5	CN([C@H]1CC[C@H](Nc2nccc(-n3ncc4c(OCCCNS(C)(=O)=O)cccc43)n2)CC1)S(C)(=O)=O [Compound 197, N-[3-(1-{2-[4-(methane-sulfonyl-methylamino)-cyclohexylamino]-pyrimidin-4-yl}-1H-indazol-4-yloxy)-propyl]-methane-sulfonamide]
247 to 248	CS(=O)(=O)N[C@H]1CC[C@H](Nc2nccc(-n3ccc4c(OCCCC#N)cccc43)n2)CC1 [Compound 202, N-(4-{4-[4-(3-cyano-propoxy)-indol-1-yl]-pyrimidin-2-ylamino}-cyclohexyl)-methane-sulfonamide]
210.5 to 212	CC(=O)NCc1cccc2c1ccn2-c1ccnc(N[C@H]2CC[C@H](N(C)S(C)(=O)=O)CC2)n1 [Compound 205, N-(1-{2-[4-(methane-sulfonyl-methylamino)-cyclohexylamino]-pyrimidin-4-yl}-1H-indol-4-ylmethyl)-acetamide]
134 to 136	N#CCCCOc1cccc2c1ccn2-c1ccnc(N[C@H]2CC[C@H](C(=O)N3CCC(O)CC3)CC2)n1 [Compound 206, 4-(1-{2-[4-(4-hydroxy-piperidin-1-carbonyl)-cyclohexylamino]-pyrimidin-4-yl}-1H-indol-4-yloxy)-butyro-nitrile]
204 to 205	CC(C)(O)c1cccc2c1cnn2-c1ccnc(N[C@H]2CC[C@H](N3CCCS3(=O)=O)CC2)n1 [Compound 207, 2-(1-{2-[4-(1,1-dioxo-isothiazolidin-2yl)-cyclohexylamino]-pyrimidin-4-yl}-1H-indazol-4-yl)-propan-2-ol]
217.8 to 218.5	CC(C)(O)[C@H]1CC[C@H](Nc2nccc(-n3ccc4c(S(C)(=O)=O)cccc43)n2)CC1 [Compound 209, 2-{4-[4-(4-methane-sulfonyl-indol-1-yl)-pyrimidin-2-ylamino]-cyclohexyl}-propan-2-ol]
171 to 172	CC(C)(O)[C@H]1CC[C@H](Nc2nccc(-n3ncc4c(OCCCNS(C)(=O)=O)cccc43)n2)CC1 [Compound 210, N-[3-(1-{2-[4-(2-hydroxyprop-2-yl)-cyclohexylamino]-pyrimidin-4-yl}-1H-indazol-4-yloxy)-propyl]-methane-sulfonamide]
190.5 to 191	C[S+]([O-])CCCOc1cccc2c1ccn2-c1ccnc(N[C@H]2CC[C@H](C(C)(C)O)CC2)n1 (some centres unmarked) [Compound 211, 2-(4-{4-[4-(3-methane-sulfinyl-propoxy)-indol-1-yl]-pyrimidin-2-ylamino}-cyclohexyl)-propan-2-ol]
250 to 251	CC(C)(O)c1cccc2c1cnn2-c1ccnc(N[C@H]2CC[C@H](NS(C)(=O)=O)CC2)n1 [Compound 212, N-(4-{4-[4-(2-hydroxy-prop-2-yl)-indazol-1-yl]-pyrimidin-2-ylamino}-cyclohexyl)-methanesulfonamide]

SMILES	melting point [°C]
CCCCOc1cccc2c1cnn2-c1ccnc(N[C@H]2CC[C@H](N(C)S(C)(=O)=O)CC2)n1 [Compound 190, N-{4-[4-(4-butoxy-indazol-1-yl)-pyrimidin-2-ylamino]-cyclohexyl}-N-methyl-methanesulfonamide]	191 to 192
CC(C)COc1cccc2c1cnn2-c1ccnc(N[C@H]2CC[C@H](N(C)S(C)(=O)=O)CC2)n1 [Compound 191, N-{4-[4-(4-isobutoxy-indazol-1-yl)-pyrimidin-2-ylamino]-cyclohexyl}-N-methyl-methanesulfonamide]	227 to 228
